Source: PubChem BioAssay (NCI)
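Following 48 hours of exposure in 96-well plates, responses at five concentrations were used to interpolate endpoints linearly. GI50: concentration for 50% inhibition of growth. Definition used: TGI = concentration required for complete inhibition of growth.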

Tests used:
Test in all cases: inhibition of tumour cell growth, NCI panel, 48 h
COLO 205 colon = test system: COLO 205 colon
SF-539 CNS = test system: SF-539 CNS
NCI/ADR-RES ovarian = test system: NCI/ADR-RES ovarian
U251 CNS = test system: U251 CNS
HOP-62 NSCLC = test system: HOP-62 NSCLC
MDA-MB-231 breast = test system: MDA-MB-231 breast
K-562 leukemia = test system: K-562 leukemia
SR leukemia = test system: SR leukemia
M14 melanoma = test system: M14 melanoma
OVCAR-4 ovarian = test system: OVCAR-4 ovarian
SF-295 CNS = test system: SF-295 CNS
CAKI-1 renal = test system: CAKI-1 renal
UO-31 renal = test system: UO-31 renal
SNB-19 CNS = test system: SNB-19 CNS
SK-OV-3 ovarian = test system: SK-OV-3 ovarian
LOX IMVI melanoma = test system: LOX IMVI melanoma
OVCAR-3 ovarian = test system: OVCAR-3 ovarian
HL-60(TB) leukemia = test system: HL-60(TB) leukemia
ACHN renal = test system: ACHN renal
HT29 colon = test system: HT29 colon
HCC-2998 colon = test system: HCC-2998 colon
T-47D breast = test system: T-47D breast
SK-MEL-28 melanoma = test system: SK-MEL-28 melanoma
MCF7 breast = test system: MCF7 breast
SK-MEL-2 melanoma = test system: SK-MEL-2 melanoma
MALME-3M melanoma = test system: MALME-3M melanoma
HS 578T breast = test system: HS 578T breast
A549 NSCLC = test system: A549 NSCLC
NCI-H522 lung = test system: NCI-H522 lung
NCI-H460 lung = test system: NCI-H460 lung
A498 renal = test system: A498 renal
DU-145 prostate = test system: DU-145 prostate
786-0 renal = test system: 786-0 renal
IGROV1 ovarian = test system: IGROV1 ovarian
MDA-MB-435 = test system: MDA-MB-435
SN12C renal = test system: SN12C renal
RPMI-8226 leukemia = test system: RPMI-8226 leukemia
MOLT-4 leukemia = test system: MOLT-4 leukemia
OVCAR-5 ovarian = test system: OVCAR-5 ovarian
HCT-15 colon = test system: HCT-15 colon
UACC-257 melanoma = test system: UACC-257 melanoma
PC-3 prostate = test system: PC-3 prostate
TK-10 renal = test system: TK-10 renal
CCRF-CEM leukemia = test system: CCRF-CEM leukemia
SNB-75 CNS = test system: SNB-75 CNS
NCI-H226 lung = test system: NCI-H226 lung
BT-549 breast = test system: BT-549 breast
EKVX NSCLC = test system: EKVX NSCLC
SF-268 CNS = test system: SF-268 CNS
SW-620 colon = test system: SW-620 colon
HCT-116 colon = test system: HCT-116 colon
UACC-62 melanoma = test system: UACC-62 melanoma
HOP-92 NSCLC = test system: HOP-92 NSCLC
OVCAR-8 ovarian = test system: OVCAR-8 ovarian
KM12 colon = test system: KM12 colon
RXF 393 renal = test system: RXF 393 renal
SK-MEL-5 melanoma = test system: SK-MEL-5 melanoma

Q: With `CS(=O)c1nccc(-c2c(-c3ccc(F)c(OCc4ccc(F)cc4)c3)nc3sccn23)n1` (centres undefined) as the compound, how does the GI50 (COLO 205 colon) read?
A: > 100 µM

Q: What about the TGI (COLO 205 colon) of the same compound?
A: > 100 µM

Q: And the GI50 (SF-539 CNS)?
A: > 100 µM

Q: And the TGI (SF-539 CNS)?
A: > 100 µM

Q: What about the GI50 (NCI/ADR-RES ovarian) of the same compound?
A: > 100 µM

Q: What about the TGI (NCI/ADR-RES ovarian) of the same compound?
A: > 100 µM

Q: And the GI50 (U251 CNS)?
A: > 100 µM

Q: And the TGI (U251 CNS)?
A: > 100 µM

Q: And the GI50 (HOP-62 NSCLC)?
A: 17.7 µM

Q: What about the TGI (HOP-62 NSCLC) of the same compound?
A: 40.6 µM

Q: And the GI50 (MDA-MB-231 breast)?
A: 26.8 µM

Q: And the TGI (MDA-MB-231 breast)?
A: > 100 µM

Q: And the GI50 (K-562 leukemia)?
A: 6.53 µM

Q: What about the TGI (K-562 leukemia) of the same compound?
A: > 100 µM

Q: What about the GI50 (SR leukemia) of the same compound?
A: 17.1 µM

Q: And the TGI (SR leukemia)?
A: > 100 µM

Q: What about the GI50 (M14 melanoma) of the same compound?
A: 35.1 µM

Q: What about the TGI (M14 melanoma) of the same compound?
A: > 100 µM

Q: And the GI50 (OVCAR-4 ovarian)?
A: 22.4 µM

Q: And the TGI (OVCAR-4 ovarian)?
A: 74.1 µM

Q: And the GI50 (SF-295 CNS)?
A: > 100 µM

Q: And the TGI (SF-295 CNS)?
A: > 100 µM

Q: What about the GI50 (CAKI-1 renal) of the same compound?
A: 18.4 µM

Q: And the TGI (CAKI-1 renal)?
A: 76.6 µM

Q: And the GI50 (UO-31 renal)?
A: > 100 µM

Q: What about the TGI (UO-31 renal) of the same compound?
A: > 100 µM

Q: And the GI50 (SNB-19 CNS)?
A: 14.9 µM

Q: And the TGI (SNB-19 CNS)?
A: 38.6 µM

Q: And the GI50 (SK-OV-3 ovarian)?
A: > 100 µM

Q: And the TGI (SK-OV-3 ovarian)?
A: > 100 µM

Q: And the GI50 (LOX IMVI melanoma)?
A: 74.6 µM

Q: And the TGI (LOX IMVI melanoma)?
A: > 100 µM

Q: And the GI50 (OVCAR-3 ovarian)?
A: 2.84 µM

Q: What about the TGI (OVCAR-3 ovarian) of the same compound?
A: 10.7 µM

Q: And the GI50 (HL-60(TB) leukemia)?
A: 3.54 µM

Q: What about the TGI (HL-60(TB) leukemia) of the same compound?
A: 13.7 µM

Q: What about the GI50 (ACHN renal) of the same compound?
A: 16.9 µM

Q: What about the TGI (ACHN renal) of the same compound?
A: > 100 µM

Q: And the GI50 (HT29 colon)?
A: 22.3 µM

Q: And the TGI (HT29 colon)?
A: > 100 µM

Q: And the GI50 (HCC-2998 colon)?
A: 10.2 µM

Q: What about the TGI (HCC-2998 colon) of the same compound?
A: 23.6 µM

Q: And the GI50 (T-47D breast)?
A: 2.64 µM

Q: What about the TGI (T-47D breast) of the same compound?
A: 7 µM

Q: And the GI50 (SK-MEL-28 melanoma)?
A: 6.6 µM

Q: What about the TGI (SK-MEL-28 melanoma) of the same compound?
A: 21.5 µM

Q: What about the GI50 (MCF7 breast) of the same compound?
A: 2.18 µM

Q: And the TGI (MCF7 breast)?
A: 5.39 µM

Q: What about the GI50 (SK-MEL-2 melanoma) of the same compound?
A: 71.8 µM

Q: What about the TGI (SK-MEL-2 melanoma) of the same compound?
A: > 100 µM

Q: And the GI50 (MALME-3M melanoma)?
A: > 100 µM

Q: What about the TGI (MALME-3M melanoma) of the same compound?
A: > 100 µM

Q: What about the GI50 (HS 578T breast) of the same compound?
A: 73.1 µM

Q: What about the TGI (HS 578T breast) of the same compound?
A: > 100 µM

Q: What about the GI50 (A549 NSCLC) of the same compound?
A: > 100 µM

Q: And the TGI (A549 NSCLC)?
A: > 100 µM

Q: And the GI50 (NCI-H522 lung)?
A: 60.6 µM

Q: And the TGI (NCI-H522 lung)?
A: > 100 µM

Q: What about the GI50 (NCI-H460 lung) of the same compound?
A: 3.78 µM

Q: And the TGI (NCI-H460 lung)?
A: 14.3 µM

Q: What about the GI50 (A498 renal) of the same compound?
A: > 100 µM

Q: And the TGI (A498 renal)?
A: > 100 µM

Q: What about the GI50 (DU-145 prostate) of the same compound?
A: 3.72 µM

Q: What about the TGI (DU-145 prostate) of the same compound?
A: 13.2 µM

Q: And the GI50 (786-0 renal)?
A: > 100 µM

Q: And the TGI (786-0 renal)?
A: > 100 µM

Q: What about the GI50 (IGROV1 ovarian) of the same compound?
A: 4.14 µM

Q: And the TGI (IGROV1 ovarian)?
A: 17.1 µM

Q: What about the GI50 (MDA-MB-435) of the same compound?
A: 47.8 µM

Q: What about the TGI (MDA-MB-435) of the same compound?
A: > 100 µM

Q: And the GI50 (SN12C renal)?
A: > 100 µM

Q: And the TGI (SN12C renal)?
A: > 100 µM

Q: And the GI50 (RPMI-8226 leukemia)?
A: 6.55 µM

Q: And the TGI (RPMI-8226 leukemia)?
A: 43.8 µM

Q: And the GI50 (MOLT-4 leukemia)?
A: 10.2 µM

Q: And the TGI (MOLT-4 leukemia)?
A: 90.2 µM

Q: What about the GI50 (OVCAR-5 ovarian) of the same compound?
A: > 100 µM

Q: And the TGI (OVCAR-5 ovarian)?
A: > 100 µM

Q: What about the GI50 (HCT-15 colon) of the same compound?
A: 16.3 µM

Q: And the TGI (HCT-15 colon)?
A: > 100 µM

Q: What about the GI50 (UACC-257 melanoma) of the same compound?
A: 15 µM

Q: And the TGI (UACC-257 melanoma)?
A: 36.5 µM

Q: And the GI50 (PC-3 prostate)?
A: 11.3 µM

Q: And the TGI (PC-3 prostate)?
A: 34.1 µM

Q: And the GI50 (TK-10 renal)?
A: > 100 µM

Q: What about the TGI (TK-10 renal) of the same compound?
A: > 100 µM

Q: What about the GI50 (CCRF-CEM leukemia) of the same compound?
A: 15.8 µM

Q: And the TGI (CCRF-CEM leukemia)?
A: > 100 µM

Q: And the GI50 (SNB-75 CNS)?
A: > 100 µM

Q: What about the TGI (SNB-75 CNS) of the same compound?
A: > 100 µM

Q: What about the GI50 (NCI-H226 lung) of the same compound?
A: > 100 µM

Q: What about the TGI (NCI-H226 lung) of the same compound?
A: > 100 µM

Q: And the GI50 (BT-549 breast)?
A: > 100 µM

Q: What about the TGI (BT-549 breast) of the same compound?
A: > 100 µM

Q: What about the GI50 (EKVX NSCLC) of the same compound?
A: 16.3 µM

Q: What about the TGI (EKVX NSCLC) of the same compound?
A: 41.3 µM

Q: And the GI50 (SF-268 CNS)?
A: 19.5 µM

Q: What about the TGI (SF-268 CNS) of the same compound?
A: 57.6 µM

Q: And the GI50 (SW-620 colon)?
A: 27 µM

Q: What about the TGI (SW-620 colon) of the same compound?
A: > 100 µM

Q: What about the GI50 (HCT-116 colon) of the same compound?
A: 5.08 µM

Q: And the TGI (HCT-116 colon)?
A: 20.8 µM

Q: What about the GI50 (UACC-62 melanoma) of the same compound?
A: 32.1 µM

Q: And the TGI (UACC-62 melanoma)?
A: > 100 µM

Q: What about the GI50 (HOP-92 NSCLC) of the same compound?
A: 5.76 µM

Q: What about the TGI (HOP-92 NSCLC) of the same compound?
A: 43.9 µM

Q: And the GI50 (OVCAR-8 ovarian)?
A: 53.2 µM

Q: And the TGI (OVCAR-8 ovarian)?
A: > 100 µM

Q: What about the GI50 (KM12 colon) of the same compound?
A: 11.3 µM

Q: What about the TGI (KM12 colon) of the same compound?
A: 31.6 µM

Q: And the GI50 (RXF 393 renal)?
A: 16.5 µM

Q: What about the TGI (RXF 393 renal) of the same compound?
A: 63.8 µM

Q: What about the GI50 (SK-MEL-5 melanoma) of the same compound?
A: 44 µM

Q: And the TGI (SK-MEL-5 melanoma)?
A: > 100 µM
